“And” between values parts separate entries of the source, which are not always exact repeats. Equal values may be shown once. Read-outs that look alike come from different tables or passages of the source.
Legend:
[1] = biological target: iodothyronine deiodinase 2 (dio2); assay: dio2 gene expression (qPCR) in exposed zebrafish embryos; type: in vivo, zebrafish (Danio rerio); details: read-out: EC50 dio2
vitellogenin 1 (vtg1) = assay: vtg1 gene expression (qPCR) in exposed zebrafish embryos; details: for EC50: read-out: EC50 vtg1
zebrafish embryos = assay: acute toxicity test from 48–120 hpf based on the OECD FET test; type: in vivo, zebrafish (Danio rerio); details: zebrafish embryos exposed 48–120 hpf; for LC50, class symbol: highest concentration set by water solubility
Source text: (§1) Twenty embryos per treatment were exposed to 5 concentrations of compound of interest in a 10× dilution factor from 48–120 hpf, which is the experimental time in which EDCs will be screened posteriorly. Embryos were exposed from 48–120 hpf rather than 0–96 hpf or 0–120 hpf to avoid unspecific toxicity outside of the EDC testing period, which have been chosen on the basis that endocrine pathways, e.g., thyroid metabolism, are not fully functional until 40–55 hpf in zebrafish embryos. Stock solutions of chemicals to be tested were freshly prepared in exposure medium. The highest concentration for each compound was selected according to its water solubility (Table S1). Exposures were performed in glass vessels to assure maximum bioavailability for hydrophobic compounds, and medium was not exchanged during the experiment.

cyp19a1b - mRNA [2] = details: cited from earlier work; for LogEC50 (cyp19a1b - mRNA): log of EC50 in μM
[3] = test system: brain aromatase (cyp19a1b); assay: cyp19a1b gene expression (qPCR) in exposed zebrafish embryos; type: in vivo, zebrafish (Danio rerio); details: for LogEC50 (cyp19a1b mRNA): log of EC50 in μM, 48-120 h, our study; for EC50: zebrafish embryos exposed 48–120 hpf, mRNA by qPCR
cyp19a1b - fluorescence = details: 0-96 h, cited from earlier work; for LogEC50 (cyp19a1b - fluorescence): log of EC50 in μM
[4] = listed physicochemical property, source not given; cited from earlier work
[5] = test system: cytosolic sulfotransferase 2 family 2 (sult2st3); assay: sult2st3 gene expression (qPCR) in exposed zebrafish embryos; type: in vivo, zebrafish (Danio rerio); details: for maximum FI / maximum average overexpression level above controls, sult2st3: exposed 48–120 hpf, times above controls; for EC50: read-out: EC50 sult2st3
vtg - blood [6] = details: cited from earlier work
[7] = test system: cytochrome P450 2k22 (cyp2k22); assay: cyp2k22 gene expression (qPCR) in exposed zebrafish embryos; details: for EC50: read-out: EC50 cyp2k22
[8] = acute toxicity test from 48–120 hpf based on the OECD FET test; type: in vivo, zebrafish (Danio rerio); details: in vivo; zebrafish embryos exposed 48–120 hpf
Source text: as §1

vtg1 - mRNA = details: 0-168 h; ref [10] (supplement list: Chen 2018); cited from earlier work
vtg - blood [9] = details: cited from earlier work; for LogEC50 (vtg - blood): log of EC50 in μM
cyp19a1b - mRNA [10] = details: 14 days (adults), cited from earlier work
ERE-GFP - fluorescence = details: 0-120 h, cited from earlier work
vtg - mRNA = details: 14 days (juveniles), cited from earlier work
cyp19a1b - vtg1 mRNA = assay: estrogenic markers considered together (cyp19a1b - vtg1 mRNA), zebrafish embryos
thyroid peroxidase (tpo) = assay: tpo gene expression (qPCR) in exposed zebrafish embryos; type: in vivo, zebrafish (Danio rerio); details: Danio rerio, read-out: EC50 tpo
sult2st3 - cyp2k22 mRNA [11] = details: 96-120 h, ref [31] (supplement list), cited from earlier work
sult2st3 - cyp2k22 mRNA [12] = assay: androgenic markers considered together (sult2st3 - cyp2k22 mRNA), zebrafish embryos
[13] = zebrafish embryos exposed 48–120 hpf, mRNA by qPCR
[14] = log of EC50 in μM, 48-120 h, our study
[15] = ref [3] (supplement list: Brion 2012)
[16] = * mean of an approximate range, ref [21] (supplement list: Molina 2018)
[17] = log of EC50 in μM, ref [21] (supplement list)
[18] = FUL 1 µM co-exposed with E2 1 µM
[19] = NIL 1 µM co-exposed with TES 1 µM, reaching control levels

C[C@]12CCC(=O)C=C1CC[C@@H]1[C@@H]2CC[C@@]2(C)[C@H]1CC[C@]2(C)O [17α-MT, 17α-methyltestosterone]
EC50 [1, 13]: 90 nM
LogEC50 (vtg1 mRNA) (vitellogenin 1 (vtg1); [14]): 0.301
EC50 (vitellogenin 1 (vtg1); zebrafish embryos exposed 48–120 hpf, mRNA by qPCR (END: downregulation)): 2000 nM
LC50 (zebrafish embryos): 90200 nM
EC50 (cyp19a1b - mRNA [2]; 0-144h, * mean of an approximate range, ref [28] (supplement list: Trant 2001)): ~170 nM
LogEC50 (cyp19a1b - mRNA) (cyp19a1b - mRNA [2]; 0-144h, ref [28] (supplement list)): -0.7696
LogEC50 (cyp19a1b mRNA) [3]: -0.2076
EC50 [3]: 620 nM
EC50 (cyp19a1b - fluorescence; [15]): 40 nM
LogEC50 (cyp19a1b - fluorescence) (cyp19a1b - fluorescence; ref [3] (supplement list)): -1.398
Water solubility [4]: 0.0339 mg/mL
maximum FI / maximum average overexpression level above controls, sult2st3 [5]: 4.64–8.97
EC50 [5, 13]: 100 nM
EC50 (vtg - blood [6]; 12 days (adults), ref [30] (supplement list: Ankley 2001), read-out: EC50 (vtg - blood)): 660 nM
EC50 (vtg - blood [6]; 21 days (adults), * mean of an approximate range, ref [29] (supplement list: Pawlowski 2004), read-out: EC50 (vtg1 - blood)): ~2 nM
LogEC50 (vtg - blood) (vtg - blood [6]; log of EC50 in μM, 12 days (adults), ref [30] (supplement list)): -0.1805
LogEC50 (vtg1 - blood) (vtg - blood [6]; log of EC50 in μM, 21 days (adults), ref [29] (supplement list)): -2.699
EC50 [7, 13]: 50 nM

CC(C)(c1ccc(O)cc1)c1ccc(O)cc1 [BPA, bisphenol A]
EC50 (vtg1 - mRNA), class symbol (vitellogenin 1 (vtg1); 48-120 h, our study): n.e.
effect on expression of vtg1 (vitellogenin 1 (vtg1); exposed 48–120 hpf): did not affect
LC50 [8]: 41600 nM
EC50 (cyp19a1b - mRNA [2]; 0-72 h, ref [20] (supplement list: Saeed 2016)): 220 nM
EC50 (cyp19a1b - mRNA [2]; 72-96 h, * mean of an approximate range, ref [5] (supplement list: Chung 2011)): ~3000 nM
LogEC50 (cyp19a1b - mRNA) (cyp19a1b - mRNA [2]; 0-72 h, ref [20] (supplement list)): -0.6576
LogEC50 (cyp19a1b - mRNA) (cyp19a1b - mRNA [2]; 72-96 h, ref [5] (supplement list)): 0.4771
EC50 ([3]; Danio rerio): 4990 nM
LogEC50 (cyp19a1b mRNA) [3]: 0.6981
EC50 (cyp19a1b - fluorescence; * mean of an approximate range, ref [18] (supplement list: Le Fol 2017)): ~6250 nM
EC50 (cyp19a1b - fluorescence; ref [2] (supplement list: Petersen 2013)): 7400 nM
EC50 (cyp19a1b - fluorescence; [15]): 3300 nM
LogEC50 (cyp19a1b - fluorescence) (cyp19a1b - fluorescence; ref [2] (supplement list)): 0.8692
LogEC50 (cyp19a1b - fluorescence) (cyp19a1b - fluorescence; ref [3] (supplement list)): 0.5185
LogEC50 (cyp19a1b - fluorescence) (cyp19a1b - fluorescence; ref [18] (supplement list)): 0.7959
EC50 (vtg1 - mRNA), class symbol (vtg1 - mRNA): n.e.
EC50 (vtg - blood [9]; 14 days (adults), ref [14] (supplement list: Brian 2005)): 650 nM
EC50 (vtg - blood [9]; 28 days (juveniles), * mean of an approximate range, ref [13] (supplement list: Van den Belt 2004)): ~2630 nM
LogEC50 (vtg - blood) (vtg - blood [9]; 14 days (adults), ref [14] (supplement list)): -0.1871
LogEC50 (vtg - blood) (vtg - blood [9]; ref [13] (supplement list)): 0.42
EC50 (cyp19a1b - mRNA [10]; [16]): ~24 nM
LogEC50 (cyp19a1b - mRNA) (cyp19a1b - mRNA [10]; [17]): -1.62
EC50 (vtg - blood [6]; 43 days (adults), * mean of an approximate range, ref [22] (supplement list: Sohoni 2001), read-out: EC50 (vtg - blood)): ~1750 nM
LogEC50 (vtg - blood) (vtg - blood [6]; log of EC50 in μM, 43 days (adults), ref [22] (supplement list)): 0.243
EC50 (ERE-GFP - fluorescence; ref [19] (supplement list: Green 2016)): 1230 nM
LogEC50 (ERE-GFP - fluorescence) (ERE-GFP - fluorescence; log of EC50 in μM, ref [19] (supplement list)): 0.08991
EC50 (vtg - mRNA; [16]): ~240 nM
LogEC50 (vtg - mRNA) (vtg - mRNA; [17]): -0.6198

CC/C(=C(/CC)c1ccc(O)cc1)c1ccc(O)cc1 [DES, diethylstilbestrol]
LC50, class symbol (zebrafish embryos): -
EC50 (cyp19a1b - mRNA [2]; 2-48 h, * mean of an approximate range, ref [6] (supplement list: Kishida 2001)): ~5.5 nM
LogEC50 (cyp19a1b - mRNA) (cyp19a1b - mRNA [2]; 2-48 h, ref [6] (supplement list)): -2.26
EC50 ([3]; Danio rerio): 10 nM
LogEC50 (cyp19a1b mRNA) [3]: -2
EC50 (cyp19a1b - fluorescence; [15]): 0.01 nM
LogEC50 (cyp19a1b - fluorescence) (cyp19a1b - fluorescence; ref [3] (supplement list)): -5

C[C@]12CC[C@@H]3c4ccc(O)cc4C[C@@H](CCCCCCCCC[S+]([O-])CCCC(F)(F)C(F)(F)F)[C@H]3[C@@H]1CC[C@@H]2O (some centres unmarked) [FUL, fulvestrant]
FI vtg1 after co-exposure with antagonist (vitellogenin 1 (vtg1); [18]): 205.50
rescue effect: decrease of vtg1 compared to single exposure of E2 (vitellogenin 1 (vtg1); [18]): 47.89%
LC50, class symbol (zebrafish embryos): -
FI cyp19a1b after co-exposure with antagonist [3, 18]: 57.17
rescue effects at 10 µM antagonist (cyp19a1b - vtg1 mRNA; FUL 10 µM co-exposed with E2): no more rescue effects than those observed at 1 µM

C[C@]12CC[C@H]3[C@@H](CCC4=CC(=O)CC[C@@H]43)[C@@H]1CC[C@@H]2O [NAN, nandrolone]
EC50 ([1]; Danio rerio): 80 nM
EC50 (vitellogenin 1 (vtg1); Danio rerio): 1720 nM
LC50 [8]: 497000 nM
EC50 ([3]; Danio rerio): 200 nM
EC50 ([5]; Danio rerio): 130 nM
maximum FI / maximum average overexpression level above controls, sult2st3 [5]: 4.64–8.97
EC50 ([7]; Danio rerio): 110 nM

CC1(C)NC(=O)N(c2ccc([N+](=O)[O-])c(C(F)(F)F)c2)C1=O [NIL, nilutamide]
LC50 [8]: 32800 nM
Water solubility [4]: 0.00419 mg/mL
rescue of TES-induced sult2st3 overexpression [5, 19]: totally rescued
rescue of TES-induced cyp2k22 overexpression [7, 19]: totally rescued

C[C@]12CC[C@H]3[C@@H](CCC4=CC(=O)CC[C@@]43C)[C@@H]1CC[C@@H]2O [TES, testosterone]
EC50 (thyroid peroxidase (tpo)): 20 nM
EC50 (vitellogenin 1 (vtg1); Danio rerio): 1460 nM
LogEC50 (sult2st3 - cyp2k22 mRNA) (sult2st3 - cyp2k22 mRNA [11]; log of EC50 in μM): -1.222
EC50 (sult2st3 - cyp2k22 mRNA [11]; read-out: EC50 (sult2st3 - cyp2k22 mRNA)): 60 nM
EC50 (sult2st3 - cyp2k22 mRNA [12]; Danio rerio, read-out: EC50 (sult2st3 - cyp2k22 mRNA)): 440 nM
LogEC50 (sult2st3 - cyp2k22 mRNA) (sult2st3 - cyp2k22 mRNA [12]; [14]): -0.3565
EC50 (cyp19a1b - mRNA [2]; 0-72 h, * mean of an approximate range, ref [27] (supplement list: Mouriec 2009)): ~1000 nM
LogEC50 (cyp19a1b - mRNA) (cyp19a1b - mRNA [2]; 0-72 h, ref [27] (supplement list)): 0
EC50 (cyp19a1b - fluorescence; [15]): 1030 nM
LogEC50 (cyp19a1b - fluorescence) (cyp19a1b - fluorescence; ref [3] (supplement list)): 0.01284
EC50 ([5]; Danio rerio): 140 nM
maximum FI / maximum average overexpression level above controls, sult2st3 [5]: 7.33 and 4.64–8.97
EC50 (cyp19a1b - vtg1 mRNA; Danio rerio, read-out: EC50 (cyp19a1b - vtg1 mRNA)): 1110 nM
LogEC50 (cyp19a1b - vtg1 mRNA) (cyp19a1b - vtg1 mRNA; [14]): 0.04532
EC50 ([7]; Danio rerio): 740 nM
maximum average overexpression level above controls, cyp2k22 ([7]; exposed 48–120 hpf, times above controls): 4.01

C=CC1(C)OC(=O)N(c2cc(Cl)cc(Cl)c2)C1=O (centres unmarked) [VIN, vinclozolin]
LC50, class symbol (zebrafish embryos): -

Reference: article PMC6479714, “Multiplex Analysis Platform for Endocrine Disruption Prediction Using Zebrafish” (International Journal of Molecular Sciences, 2019)
